Assay results: patent publication US6380198B1 (Laboratoire Medidom S.A., priority 1997, dated 2002)
Where “and” joins values, the source holds several entries; their conditions need not be identical. Equal entries are not always repeated. Where two headings read alike, the source gives them in different places.

What was measured:
σ-1 receptors = target: T1, σ-1 receptors (Oryctolagus cuniculus, UniProt G1SD54); test: [3H](+)-pentazocine receptor binding and competitive binding on irido-ciliary body membranes; design: species or system rabbit (New Zealand albino)
T1 construct: cell membranes obtained from the irido-ciliary body complex; from tissue; host or cells: rabbit irido-ciliary body, P2 membrane fraction
T1 sequence (G1SD54 1-223): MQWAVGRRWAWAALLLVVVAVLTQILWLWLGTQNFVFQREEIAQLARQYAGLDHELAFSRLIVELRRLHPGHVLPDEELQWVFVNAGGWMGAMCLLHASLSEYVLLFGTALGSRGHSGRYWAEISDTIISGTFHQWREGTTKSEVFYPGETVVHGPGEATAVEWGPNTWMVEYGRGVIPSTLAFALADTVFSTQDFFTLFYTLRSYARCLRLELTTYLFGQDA
Description: In order to identify the presence of a receptor sites in the eye the technique of “receptor binding” has been exploited. The latter has been carried out on cell membranes obtained from the irido-ciliary body complex. The irido-ciliary body complex had been explanted, after sacrifice, from male albino rabbits of the New Zealand strain. The tissue was homogenised in buffer and a fraction rich in cell membrane proteins was isolated, obtained by centrifugation. […] Aliquots of the said fraction of the homogenate containing 300 μg of total proteins were incubated with scalar amounts of [^3H](+)-pentazocine (which is used, for experimental purposes only, as a a ligand). The reaction was carried out at 37° C. for 150 minutes and then, after filtering, the radioactivity left on the filters was measured by liquid scintillation.

intraocular pressure [1] = test: Intraocular pressure in New Zealand albino rabbits after instillation of a σ ligand; format: in vivo, rabbit (New Zealand albino); settings: 1% preparation, 50 μl in right conjunctival fornix; 60 minutes after instillation; p<0.01
Protocol: A 1% preparation of NANM was administered (50 μl) in the conjunctival fornix of the right eye of male albino rabbits of the New Zealand strain, after measuring the (baseline) intraocular pressure.

[2] = tested on: intraocular pressure of rabbits showing normal baseline intraocular pressure; test: Intraocular pressure in rabbits with normal intraocular pressure after topical instillation; format: in vivo, rabbit (Vienna Blue, pigmented)
intraocular pressure [3] = settings: general statement on the literature; cited from earlier work
[4] = tested on: intraocular pressure of rabbits with ocular hypertension; test: Intraocular pressure in rabbits with ocular hypertension induced by α-chymotrypsin; format: in vivo, rabbit (Vienna Blue, pigmented)
[5] = tested on: cornea (corneal thickness)
intraocular pressure [6] = settings: cited from earlier work
[7] = 50 μl eye-drops, 0.050% flunarizine, equimolar comparators, 0.5% timolol

## C=CCN1CC[C@@]2(C)c3cc(O)ccc3C[C@@H]1[C@@H]2C [NANM, (+)-N-allil-nor-meth-azocine]
σ-1 receptors; competitive binding
  Classes of σ receptor sites bound (Hill coefficient analysis): interacts with one only class
σ-1 receptors; constant amount of radioligand, scalar amounts of competitor
  Displacement of [3H](+)-pentazocine in competitive binding: shift the radioactive ligands from the receptor sites
Intraocular pressure [1]
  Intraocular pressure versus vehicle: significantly reduced

## COc1ccc(CCN(C)CCCC(C#N)(c2ccc(OC)c(OC)c2)C(C)C)cc1OC (centres unmarked) [verapamil]
[2]; [7]
  Effect on intraocular pressure in rabbits with normal pressure, in words: neither the verapamil formulation nor the diltiazem formulation, both using the same vehicle as MEG 01, did produce any intraocular pressure decrease
[2]; Table 1, average ± S.D. of 4 rabbits, 30 min after instillation, 50 μl eye-drops: 0.050% flunarizine, 0.056% verapamil, 0.051% diltiazem, 0.043% nifedipine
  Intraocular pressure (mmHg) at the time (min): 30, average ± S.D.: 15 ± 1.3 mmHg
[2]; Table 1, average ± S.D. of 4 rabbits, 60 min after instillation, 50 μl eye-drops: 0.050% flunarizine, 0.056% verapamil, 0.051% diltiazem, 0.043% nifedipine
  Intraocular pressure (mmHg) at the time (min): 60, average ± S.D.: 14.7 ± 0.5 mmHg
[2]; Table 1, average ± S.D. of 4 rabbits, 90 min after instillation, 50 μl eye-drops: 0.050% flunarizine, 0.056% verapamil, 0.051% diltiazem, 0.043% nifedipine
  Intraocular pressure (mmHg) at the time (min): 90, average ± S.D.: 14 ± 1.0 mmHg
[2]; Table 1, average ± S.D. of 4 rabbits, 120 min after instillation, 50 μl eye-drops: 0.050% flunarizine, 0.056% verapamil, 0.051% diltiazem, 0.043% nifedipine
  Intraocular pressure (mmHg) at the time (min): 120, average ± S.D.: 15.7 ± 0.5 mmHg
[2]; Table 1, average ± S.D. of 4 rabbits, 180 min after instillation, 50 μl eye-drops: 0.050% flunarizine, 0.056% verapamil, 0.051% diltiazem, 0.043% nifedipine
  Intraocular pressure (mmHg) at the time (min): 180, average ± S.D.: 16.2 ± 0.5 mmHg
[2]; Table 1, average ± S.D. of 4 rabbits, 240 min after instillation, 50 μl eye-drops: 0.050% flunarizine, 0.056% verapamil, 0.051% diltiazem, 0.043% nifedipine
  Intraocular pressure (mmHg) at the time (min): 240, average ± S.D.: 16.5 ± 1.0 mmHg
[2]; Table 1, average ± S.D. of 4 rabbits, time 0 = 15 min before instillation (baseline), 50 μl eye-drops: 0.050% flunarizine, 0.056% verapamil, 0.051% diltiazem, 0.043% nifedipine
  Intraocular pressure (mmHg) at the time (min): 0, average ± S.D.: 16 ± 0.8 mmHg
[2]; Table 1, individual rabbit, right eye, 30 min after instillation, 50 μl eye-drops: 0.050% flunarizine, 0.056% verapamil, 0.051% diltiazem, 0.043% nifedipine
  Intraocular pressure (mmHg) at the time (min): 30: 16 mmHg and 14 mmHg and 17 mmHg and 15 mmHg
[2]; Table 1, individual rabbit, right eye, 60 min after instillation, 50 μl eye-drops: 0.050% flunarizine, 0.056% verapamil, 0.051% diltiazem, 0.043% nifedipine
  Intraocular pressure (mmHg) at the time (min): 60: 15 mmHg (3×) and 14 mmHg
[2]; Table 1, individual rabbit, right eye, 90 min after instillation, 50 μl eye-drops: 0.050% flunarizine, 0.056% verapamil, 0.051% diltiazem, 0.043% nifedipine
  Intraocular pressure (mmHg) at the time (min): 90: 15 mmHg (3×) and 13 mmHg
[2]; Table 1, individual rabbit, right eye, 120 min after instillation, 50 μl eye-drops: 0.050% flunarizine, 0.056% verapamil, 0.051% diltiazem, 0.043% nifedipine
  Intraocular pressure (mmHg) at the time (min): 120: 16 mmHg (3×) and 13 mmHg
[2]; Table 1, individual rabbit, right eye, 180 min after instillation, 50 μl eye-drops: 0.050% flunarizine, 0.056% verapamil, 0.051% diltiazem, 0.043% nifedipine
  Intraocular pressure (mmHg) at the time (min): 180: 16 mmHg (3×) and 17 mmHg
[2]; Table 1, individual rabbit, right eye, 240 min after instillation, 50 μl eye-drops: 0.050% flunarizine, 0.056% verapamil, 0.051% diltiazem, 0.043% nifedipine
  Intraocular pressure (mmHg) at the time (min): 240: 17 mmHg (3×) and 15 mmHg
[2]; Table 1, individual rabbit, right eye, time 0 = 15 min before instillation (baseline), 50 μl eye-drops: 0.050% flunarizine, 0.056% verapamil, 0.051% diltiazem, 0.043% nifedipine
  Intraocular pressure (mmHg) at the time (min): 0: 17 mmHg and 15 mmHg and 16 mmHg (2×)
Intraocular pressure [3]
  Intraocular pressure after administration to man: reduction of the intraocular pressure
[4]; [7]
  Effect on intraocular pressure in rabbits with ocular hypertension, in words: do not show any significant reduction
[4]; Table 3, hypertensive rabbits, average ± S.D. of 4 rabbits, 30 min after instillation, 50 μl eye-drops: 0.050% flunarizine, 0.056% verapamil, 0.051% diltiazem, 0.043% nifedipine
  Intraocular pressure (mmHg) at the time (min): 30, average ± S.D.: 48.7 ± 6.5 mmHg
[4]; Table 3, hypertensive rabbits, average ± S.D. of 4 rabbits, 60 min after instillation, 50 μl eye-drops: 0.050% flunarizine, 0.056% verapamil, 0.051% diltiazem, 0.043% nifedipine
  Intraocular pressure (mmHg) at the time (min): 60, average ± S.D.: 50.0 ± 5.47 mmHg
[4]; Table 3, hypertensive rabbits, average ± S.D. of 4 rabbits, 90 min after instillation, 50 μl eye-drops: 0.050% flunarizine, 0.056% verapamil, 0.051% diltiazem, 0.043% nifedipine
  Intraocular pressure (mmHg) at the time (min): 90, average ± S.D.: 48.0 ± 5.94 mmHg
[4]; Table 3, hypertensive rabbits, average ± S.D. of 4 rabbits, 120 min after instillation, 50 μl eye-drops: 0.050% flunarizine, 0.056% verapamil, 0.051% diltiazem, 0.043% nifedipine
  Intraocular pressure (mmHg) at the time (min): 120, average ± S.D.: 48.5 ± 5.97 mmHg
[4]; Table 3, hypertensive rabbits, average ± S.D. of 4 rabbits, 180 min after instillation, 50 μl eye-drops: 0.050% flunarizine, 0.056% verapamil, 0.051% diltiazem, 0.043% nifedipine
  Intraocular pressure (mmHg) at the time (min): 180, average ± S.D.: 48.75 ± 6.39 mmHg
[4]; Table 3, hypertensive rabbits, average ± S.D. of 4 rabbits, 240 min after instillation, 50 μl eye-drops: 0.050% flunarizine, 0.056% verapamil, 0.051% diltiazem, 0.043% nifedipine
  Intraocular pressure (mmHg) at the time (min): 240, average ± S.D.: 49.5 ± 5.44 mmHg
[4]; Table 3, hypertensive rabbits, average ± S.D. of 4 rabbits, time 0 = 15 min before instillation (baseline), 50 μl eye-drops: 0.050% flunarizine, 0.056% verapamil, 0.051% diltiazem, 0.043% nifedipine
  Intraocular pressure (mmHg) at the time (min): 0, average ± S.D.: 49.0 ± 5.94 mmHg
[4]; Table 3, hypertensive rabbits, individual rabbit, right eye, 30 min after instillation, 50 μl eye-drops: 0.050% flunarizine, 0.056% verapamil, 0.051% diltiazem, 0.043% nifedipine
  Intraocular pressure (mmHg) at the time (min): 30: 55 mmHg and 48 mmHg and 40 mmHg and 52 mmHg
[4]; Table 3, hypertensive rabbits, individual rabbit, right eye, 60 min after instillation, 50 μl eye-drops: 0.050% flunarizine, 0.056% verapamil, 0.051% diltiazem, 0.043% nifedipine
  Intraocular pressure (mmHg) at the time (min): 60: 56 mmHg and 49 mmHg and 43 mmHg and 52 mmHg
[4]; Table 3, hypertensive rabbits, individual rabbit, right eye, 90 min after instillation, 50 μl eye-drops: 0.050% flunarizine, 0.056% verapamil, 0.051% diltiazem, 0.043% nifedipine
  Intraocular pressure (mmHg) at the time (min): 90: 55 mmHg and 46 mmHg and 41 mmHg and 50 mmHg
[4]; Table 3, hypertensive rabbits, individual rabbit, right eye, 120 min after instillation, 50 μl eye-drops: 0.050% flunarizine, 0.056% verapamil, 0.051% diltiazem, 0.043% nifedipine
  Intraocular pressure (mmHg) at the time (min): 120: 55 mmHg and 47 mmHg and 41 mmHg and 51 mmHg
[4]; Table 3, hypertensive rabbits, individual rabbit, right eye, 180 min after instillation, 50 μl eye-drops: 0.050% flunarizine, 0.056% verapamil, 0.051% diltiazem, 0.043% nifedipine
  Intraocular pressure (mmHg) at the time (min): 180: 57 mmHg and 46 mmHg and 42 mmHg and 50 mmHg
[4]; Table 3, hypertensive rabbits, individual rabbit, right eye, 240 min after instillation, 50 μl eye-drops: 0.050% flunarizine, 0.056% verapamil, 0.051% diltiazem, 0.043% nifedipine
  Intraocular pressure (mmHg) at the time (min): 240: 56 mmHg and 48 mmHg and 43 mmHg and 51 mmHg
[4]; Table 3, hypertensive rabbits, individual rabbit, right eye, time 0 = 15 min before instillation (baseline), 50 μl eye-drops: 0.050% flunarizine, 0.056% verapamil, 0.051% diltiazem, 0.043% nifedipine
  Intraocular pressure (mmHg) at the time (min): 0: 56 mmHg and 47 mmHg and 42 mmHg and 51 mmHg
[5]; individual rabbit, treated right eye (RE), 1 hour after single 50 μl instillation, 0.050% flunarizine, 0.056% verapamil, 0.051% diltiazem, 0.043% nifedipine
  Corneal thickness (mm): 1 hour: 0.376 mm and 0.398 mm and 0.387 mm and 0.401 mm
[5]; individual rabbit, treated right eye (RE), 2 hours after single 50 μl instillation, 0.050% flunarizine, 0.056% verapamil, 0.051% diltiazem, 0.043% nifedipine
  Corneal thickness (mm): 2 hours: 0.385 mm and 0.406 mm and 0.400 mm and 0.494 mm
[5]; individual rabbit, treated right eye (RE), 3 hours after single 50 μl instillation, 0.050% flunarizine, 0.056% verapamil, 0.051% diltiazem, 0.043% nifedipine
  Corneal thickness (mm): 3 hours: 0.383 mm and 0.402 mm (2×) and 0.410 mm
[5]; individual rabbit, treated right eye (RE), before single 50 μl instillation, 0.050% flunarizine, 0.056% verapamil, 0.051% diltiazem, 0.043% nifedipine
  Corneal thickness (mm): Baseline: 0.356 mm and 0.384 mm and 0.372 mm and 0.392 mm
[5]; ophthalmic solution containing 0.056% verapamil
  Increase in corneal thickness: 15-20 μm/hour
[5]; single 50 μl instillation, observed up to 3 hours
  Corneal swelling / alteration of corneal thickness, in words: caused comeal swelling
Intraocular pressure [6]; Beatty et al. 1984
  Intraocular pressure after oral administration to rabbits: did not evidence any effect
  Intraocular pressure after topical administration to rabbits: increase in the intraocular pressure
Intraocular pressure [6]; Payene et al. 1990
  Intraocular pressure after systemic administration to rabbits: reduction in the intraocular pressure
  Intraocular pressure after topical administration to rabbits: did not detect any significant effect
